Data: ChEMBL document CHEMBL1129410, “Diastereoselective synthesis of all four isomers of 3-(4-chlorophenyl) glutamic acid: identification of the isomers responsible for the potentiation of L-homocysteic acid-evoked depolarizations in neonatal rat motoneurons” (1996)

Organism: Rattus norvegicus
Test: Effects of isomer (100 uM) upon 10 uM L-HCA-induced depolarization; Control
Assay type: functional

SMILES: N[C@H](C(=O)O)[C@@H](CC(=O)O)c1ccc(Cl)cc1
- Others: 114.5%

SMILES: N[C@@H](C(=O)O)[C@H](CC(=O)O)c1ccc(Cl)cc1
- Others: 94.2%

SMILES: NC(C(=O)O)[C@H](CC(=O)O)c1ccc(Cl)cc1 (stereo partly drawn)
- Others: 130.4%
